Assay results: ChEMBL document CHEMBL1137509, “Taxodistines A and B, abietane-type diterpenes from Taxodium distichum” (Bioorg Med Chem Lett, 2007)
Values after ≈ are worked out from the molar mass of the structure shown. Active and inactive are the calls of the source. No cut-off for these calls is given here.

Legend:
Tubulin (Homo sapiens) [1] = biological target: T1, Tubulin (Homo sapiens) (UniProt P68371+Q9H4B7+P0DPH7+P68366+Q13509+Q71U36+P04350+Q3ZCM7+P07437+P68363+Q9BQE3+Q6PEY2+Q13885+Q9BVA1+Q9BUF5); assay: Inhibition of tubulin polymerization at 100 uM after 30 mins; format: protein-complex assay
P388 = assay: Cytotoxicity against mouse P388 cells; format: functional, cell-based
Tubulin (Homo sapiens) [2] = biological target: T1, Tubulin (Homo sapiens); assay: Inhibition of tubulin polymerization at 200 uM after 30 mins; format: protein-complex assay

| Compound | inhibition (Tubulin (Homo sapiens) [1]) | IC50 (P388) | Activity (Tubulin (Homo sapiens) [2]) |
| --- | --- | --- | --- |
| CO[C@@H]1c2cc(C(C)C)c(O)cc2[C@@]2(C)CCCC(C)(C)[C@@H]2[C@H]1O [TAXODISTINE B] | 90% | 6.5 µg/mL (≈ 19.5 µM) |  |
| CC(C)C1=CC2=CC(=O)[C@H]3C(C)(C)CCC[C@]3(C)C2=C(O)C1=O | 45% |  |  |
| CO[C@@H]1c2cc(C(C)C)c(O)c(O)c2[C@@]2(C)CCCC(C)(C)[C@@H]2[C@H]1O [TAXODISTINE A] |  | 0.43 µg/mL (≈ 1.23 µM) | inactive |
